Results as given in article PMC8533211, “Computationally Assisted Lead Optimization of Novel Potent and Selective MAO-B Inhibitors” (Biomedicines, 2021).
“Also recorded” adds a separate entry of the source. Read-outs that look alike come from different tables or passages of the source.

Legend:
[1] = system: human recombinant MAO A; conditions: human recombinant; kynuramine; cited from earlier work
[2] = system: human recombinant MAO B; conditions: cited from earlier work; for IC50: human recombinant, kynuramine
[3] = target: T1, human recombinant MAO-B (Homo sapiens, UniProt P27338); set-up: purchased BD Biosciences (Bedford, MA, USA); conditions: cited from earlier work
T1 sequence (P27338 1-520): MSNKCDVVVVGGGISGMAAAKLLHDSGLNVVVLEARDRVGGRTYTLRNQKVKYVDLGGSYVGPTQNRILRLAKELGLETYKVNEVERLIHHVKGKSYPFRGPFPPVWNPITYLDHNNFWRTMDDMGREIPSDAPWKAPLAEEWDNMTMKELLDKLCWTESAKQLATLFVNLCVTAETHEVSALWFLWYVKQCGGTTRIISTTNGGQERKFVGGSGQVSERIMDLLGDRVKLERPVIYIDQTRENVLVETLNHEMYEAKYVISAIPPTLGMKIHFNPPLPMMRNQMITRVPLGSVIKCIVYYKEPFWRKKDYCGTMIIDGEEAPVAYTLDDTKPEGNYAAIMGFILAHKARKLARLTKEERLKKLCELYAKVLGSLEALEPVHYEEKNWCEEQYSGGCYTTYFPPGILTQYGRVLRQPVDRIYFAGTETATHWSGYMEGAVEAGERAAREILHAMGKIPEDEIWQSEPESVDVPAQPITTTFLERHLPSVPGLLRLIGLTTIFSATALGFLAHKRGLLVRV

[4] = system: MAO-A (rat liver mitochondrial fraction); set-up: method as in PMID 18372132; conditions: chromogenic solution; cited from earlier work
[5] = system: MAO-B (rat liver mitochondrial fraction); set-up: method as in PMID 18372132; conditions: cited from earlier work
[6] = target: T2, human recombinant MAO-A (Homo sapiens, UniProt P21397); assay: kynuramine oxidation deamination assay, MAO-A inhibition (IC50); format: biochemical; conditions: kynuramine 80 μM, mean ± S.D. of triplicate
T2 construct: purchased BD Biosciences (Bedford, MA, USA)
T2 sequence (P21397 1-527): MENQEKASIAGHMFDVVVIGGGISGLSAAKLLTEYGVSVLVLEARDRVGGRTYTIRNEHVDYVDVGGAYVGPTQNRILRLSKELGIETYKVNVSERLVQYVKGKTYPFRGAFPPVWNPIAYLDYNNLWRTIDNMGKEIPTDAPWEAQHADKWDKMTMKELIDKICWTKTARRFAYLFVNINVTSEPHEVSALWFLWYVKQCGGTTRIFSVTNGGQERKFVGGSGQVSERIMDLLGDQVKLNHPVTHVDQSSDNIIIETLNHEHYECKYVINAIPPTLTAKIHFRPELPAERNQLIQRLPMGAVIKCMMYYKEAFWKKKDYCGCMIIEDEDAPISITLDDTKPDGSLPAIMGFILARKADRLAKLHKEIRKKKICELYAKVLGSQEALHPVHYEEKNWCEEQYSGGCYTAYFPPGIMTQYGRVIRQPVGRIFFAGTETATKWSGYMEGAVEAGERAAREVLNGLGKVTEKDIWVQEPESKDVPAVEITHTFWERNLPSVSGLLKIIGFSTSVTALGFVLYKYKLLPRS
Method: (§1) A fixed single concentration of kynuramine substrate and varying concentrations of the test inhibitor were used to determine the IC50 values. The kynuramine concentrations for MAO-A and -B were 80 μM and 50 μM, respectively. These concentrations of kynuramine were twice the apparent KM value for substrate binding. […] Enzymatic reactions were performed in 50 μL of the assay mixture containing 0.1 M potassium phosphate buffer, pH 7.4. […] Reactions were initiated by the addition of 12.50 μL of MAO-A (to 5 μg/mL) or -B (to 10 μg/mL). The plate was incubated for 20 min at 37 °C, and the enzymatic reaction was terminated by the addition of 18.8 μL of 2N NaOH. Formation of the enzyme product, 4-hydroxyquinoline, was measured fluorometrically using a SpectraMax M5 fluorescence plate reader (Molecular Devices, Sunnyvale, CA, USA) with excitation (320 nm) and emission (380 nm) wavelengths and the Soft Max Pro program. The inhibition effects of enzyme activity were calculated as percent of product formation compared to the corresponding control (enzyme–substrate reaction) without inhibitors. Controls included the assays where the enzyme or the substrate was added after terminating the reaction to determine the interference with the fluorescence measurements. The IC50 values for MAO-A and -B inhibition were calculated from the concentration-dependent inhibition curves using XLFit® software.

[7] = target: T1, human recombinant MAO-B; assay: time-dependent inhibition of MAO-B; conditions: read-out: MAO-B enzyme inhibition in time-dependent assay
Method: The controls, without inhibitors, were also run simultaneously. Activities of the enzyme were determined as described above, and the percentage of the remaining enzyme activity was plotted against the pre-incubation time to determine time-dependent inhibition.
The control enzyme without inhibitor was also run concurrently. For validation, the MAO- B standards were run simultaneously for the time-dependent assay.

[8] = target: T1, human recombinant MAO-B; assay: kynuramine oxidation deamination assay, MAO-B inhibition (IC50); format: biochemical; set-up: purchased BD Biosciences (Bedford, MA, USA); conditions: for Selectivity Index MAO-A/B: ratio of IC50 MAO-A / MAO-B; for IC50: recombinant human MAO-B, kynuramine 50 μM, mean ± S.D. of triplicate
Method: as §1, with “The kynuramine concentrations for MAO-A and -B were 80 μM and 50 μM, respectively.” left out

[9] = target: T1, human recombinant MAO-B; assay: MAO-B inhibition kinetics, Lineweaver–Burk (Ki, type of inhibition); format: biochemical; set-up: purchased BD Biosciences (Bedford, MA, USA); conditions: for Ki: kynuramine 1.90–500 μM, mean ± S.D. of triplicate experiments, read-out: Monoamine Oxidase B Ki
Method: (§2) The controls without inhibitor were also run simultaneously. Three sets of assays were performed at varying concentrations of the substrate for each experiment: one control without inhibitor and the others at two fixed concentrations of the inhibitor. The data were analyzed by double reciprocal Lineweaver–Burk plots to determine Ki (i.e., inhibition/binding affinity) values and the kinetic data, namely Km, Vmax, and Ki values, were computed by SigmaPlot 12 [9].
Modified flavonoids (1–4) c were evaluated against MAO-B at varying concentrations of kynuramine, a nonselective substrate, to investigate the nature of inhibition of the enzymes. Based on dose–concentration inhibition, three to five concentrations (below and above the concentration of IC50 values) were selected for the inhibition kinetics experiment.

[10] = target: T1, human recombinant MAO-B; assay: reversibility of binding by equilibrium dialysis of the enzyme–inhibitor complex; conditions: for MAO-B enzyme activity recovered after dialysis: 1.5 µM inhibitor, dialyzed overnight at 4 °C, 25 mM buffer pH 7.4; for reversibility of binding/inhibition of MAO-B: equilibrium dialysis
Method: Recovery of the catalytic activity of the enzyme was determined by assay of the enzyme activity before and after equilibrium-dialysis. […] After 20 min of incubation at 37 °C, the reaction was stopped by chilling the tubes in the ice bath. All the samples were dialyzed against potassium phosphate buffer (25 mM; pH 7.4) at 4 °C for 14–18 h (with three buffer changes). The control enzyme (without inhibitor) was also run simultaneously using the same procedure and the activity of the enzyme was determined before and after the dialysis.
MAO-B enzyme was incubated with the highest concentration of the analogs for 20 min at 37 °C to allow for binding of the inhibitor with the enzyme and formation of the enzyme–inhibitor complex. Then, the mixtures of the enzyme–inhibitor complex were dialyzed overnight at 4 °C using 25 mM KHPO4 (pH 7.4) buffer. The enzyme activities were examined before and after dialysis.

[11] = system: MAO-A; set-up: method as in PMID 32869630; conditions: chemiluminescent assay, MAO-Glo kit; cited from earlier work
[12] = system: MAO-B; set-up: method as in PMID 32869630; conditions: chemiluminescent assay, MAO-Glo kit; cited from earlier work
[13] = target: T3, Monoamine Oxidase A (Homo sapiens, UniProt P21397); assay: MAO-A inhibition kinetics (Ki, type of inhibition); format: biochemical
T3 sequence (P21397 1-527): T2 sequence (P21397 1-527)
Method: as §2

SMILES | IC50 [1] [µM] | IC50 [2] [µM] | IC50 [6] [µM] | selectivity towards MAO-B compared with MAO-A [8] [fold] | Selectivity Index MAO-A/B [8] | IC50 [8] [µM] | Monoamine Oxidase B Type of Inhibition [9] | Ki [9] [µM] | reversibility of binding/inhibition of MAO-B [10] | other results
COc1ccc(-c2cc(=O)c3c(O)cc(OC)cc3o2)cc1 [Acacetin 7-O-methyl ether] | > 100 | 0.198 ± 0.001 | – | – | – | – | – | – | – | Selectivity Index MAO-A/B [2]: >505.05; selectivity index (SI) for MAO A/B [2]: > 505 fold; Monoamine Oxidase B Type of Inhibition [3]: competitive/partially reversible
O=C1C[C@@H](c2ccc(O)cc2)Oc2cc(O)cc(O)c21 [Naringenin] | – | – | – | – | – | – | – | – | – | IC50 [4]: 955 ± 129 µM; IC50 ([5]; chromogenic solution): 288 ± 18 µM; Selectivity Index MAO-A/B [5]: 3.32
COc1cc(O)c2c(=O)cc(-c3ccc(OC(C)C)cc3)oc2c1 [Compound 2c, 5-Hydroxy-2-(4-isopropoxyphenyl)-7-methoxy-4H-chromen-4-one] | – | – | 30.74 ± 0.023 | 1921 | 1921.3 | 0.016 ± 0.007 | mixed/reversible | 0.052 ± 0.0031 | reversible inhibition | inhibition at 0.3 µM [7]: 30 to 50%; MAO-B enzyme activity recovered after dialysis [10]: 66%; reversibility of binding/inhibition of MAO-B ([10]; listed as O-isopropyl): reversible MAO-B inhibitors
C#CCOc1ccc(-c2cc(=O)c3c(O)cc(OC)cc3o2)cc1 [Compound 4c, 5-Hydroxy-7-methoxy-2-(4-(prop-2-yn-1-yloxy)phenyl)-4H-chromen-4-one] | – | – | 62.7 ± 5.21 | 1279 | 1279.6 | 0.049 ± 0.0014 | mixed/irreversible | 0.068 ± 0.0071 | irreversible MAO-B inhibitors | inhibition at 0.4 µM [7]: 70 to 80%
O=c1cc(-c2ccc(O)c(O)c2)oc2cc(O)cc(O)c12 [Luteolin] | – | – | – | – | – | – | – | – | – | IC50 [11]: 8.57 ± 0.47 µM; IC50 [12]: > 100 µM
COc1cc(O)c2c(=O)cc(-c3ccc(O)cc3)oc2c1 [Genkwanin] | 0.14 ± 0.01 | 0.35 ± 0.03 | – | – | – | – | – | – | – | Selectivity Index MAO-A/B [2]: 0.40
COc1ccc(-c2cc(=O)c3c(O)cc(O)cc3o2)cc1 [Acacetin] | 0.121 ± 0.001 | 0.049 ± 0.0007 | 0.105 ± 0.0014 | – | – | – | competitive/reversible | – | – | Monoamine Oxidase A Type of Inhibition [13]: competitive/reversible; Ki ([13]; mean ± S.D. of triplicate experiments): 0.03 ± 0.0018 µM
COc1cc(O)c2c(=O)cc(-c3ccc(OCC(C)C)cc3)oc2c1 [Compound 3c, 5-Hydroxy-2-(4-Isobutoxyphenyl)7-methoxy-4H-chromen-4-one] | – | – | > 100 | > 3000 | >3225.8 | 0.031 ± 0.007 | mixed/irreversible | 0.037 ± 0.0095 | irreversible MAO-B inhibitors | inhibition at 0.3 µM [7]: 70 to 80%; selectivity towards MAO-B compared with MAO-A ([8]; listed as O-isobutyl): > 3225 fold
CCCOc1ccc(-c2cc(=O)c3c(O)cc(OC)cc3o2)cc1 [Compound 1c, 5-Hydroxy-7-methoxy-2-(4-propoxyphenyl)-4H-chromen-4-one] | – | – | 48.8 ± 2.01 | 1478 | 1478.2 | 0.033 ± 0.0042 | mixed/partially reversible | 0.043 ± 0.0038 | partially reversible; also recorded: reversible inhibition | inhibition at 0.1 µM [7]: 70 to 80%; MAO-B enzyme activity recovered after dialysis [10]: 30%; reversibility of binding/inhibition of MAO-B ([10]; listed as O-propyl): reversible MAO-B inhibitors
